According to patent publication US20170333391A1, “METHOD FOR DELAYING THE ONSET OF PULMONARY FIBROSIS OR TREATING PULMONARY FIBROSIS” (EVERFRONT BIOTECH INC., priority 2016, published 2017):

Assays:
IL-6 = IL-6 mRNA in mouse pulmonary tissue, RT-PCR; assay type: in vivo, mice; conditions: Bleomycin sulfate, normal control = 1, oil group = 3.26
From the text: 24 C57B/L6 mice (age: four weeks) were separated into four groups (6 mice in each group). […]
Then, for another portion of ground samples of each group, the total RNAs were extracted using an RNeasy Mini Kit. The QuantiTect Reverse Transcription Kit was used to conduct reverse transcription on the total RNA to obtain the cDNA. […]

α-SMA protein = α-SMA protein expression in NHLF, western blotting (3-1); assay type: cell-based, human
Method: Normal Human lung fibroblasts (NHLF) were seeded into 6 cm culture dishes at a density of 2×10^5 cells/dish, comprising a control group and six experimental groups (7 dishes in total). The cells were cultured until the next day, and then the mediums were removed. Each group was respectively treated under the following conditions to conduct follow-up experiments: • (1) Control group: cells were cultured in a FGM-2 medium containing 10% serum for 36 hours; • (2) Group i: cells were cultured in a FGM-2 medium containing 1% serum for 36 hours; • (3) Group ii: cells were firstly cultured in a FGM-2 medium containing 1% serum for 12 hours, and then compound (1) was added into the medium to provide a final concentration of 15 μg/ml; thereafter, the cells were cultured for another 24 hours; • (4) Group iii: cells were firstly cultured in a FGM-2 medium containing 1% serum for 12 hours, and then compound (1) was added into the medium to provide a final concentration of 25 μg/ml; thereafter, the cells were cultured for another 24 hours; • (5) Group iv: cells were cultured in a FGM-2 medium containing 1% serum and TGF-β1 (5 ng/ml) for 36 hours; • (6) Group v: cells were firstly cultured in a FGM-2 medium containing 1% serum and TGF-β1 (5 ng/ml) for 12 hours, and then compound (1) was added into the medium to provide a final concentration of 15 μg/ml; thereafter, the cells were cultured for another 24 hours; and • (7) Group vi: cells were firstly cultured in a FGM-2 medium containing 1% serum and TGF-β1 (5 ng/ml) for 12 hours, and then compound (1) was added into the medium to provide a final concentration of 25 μg/ml; thereafter, the cells were cultured for another 24 hours.
Thereafter, the proteins in the cells of each group were extracted, and the expressions of BMP-7 protein, TGF-β protein and α-SMA protein in the NHLF cells of each group were measured with western blotting, wherein the β-actin served as the internal control. The results of the control group served as the basis for calculating the relative expression levels of the other groups.

With CCCC=C1OC(=O)c2ccccc21 [compound (1)] the “Relative expression level (fold) IL-6” value (IL-6; High-dose group: mRNA in pulmonary tissue, compound (1) 50 mg/kg-body weight orally every day for 30 days) was 0.53 fold, the “Relative expression level (fold) IL-6” value (IL-6; Low-dose group: mRNA in pulmonary tissue, compound (1) 10 mg/kg-body weight orally every day for 30 days) was 1.36 fold and the “Relative expression level (fold) α-SMA protein” value (α-SMA protein; Group ii: 1% serum 12 h, then compound (1) 15 μg/ml 24 h, no TGF-β1, 10% serum control = 1, 1% serum group i = 0.94) was 0.95 fold. The “Relative expression level (fold) α-SMA protein” value (α-SMA protein; Group iii: 1% serum 12 h, then compound (1) 25 μg/ml 24 h, no TGF-β1, 10% serum control = 1, 1% serum group i = 0.94) was 0.89 fold, the “Relative expression level (fold) α-SMA protein” value (α-SMA protein; Group v: 1% serum + TGF-β1 5 ng/ml 12 h, then compound (1) 15 μg/ml 24 h, 10% serum control = 1, TGF-β1-only group iv = 0.89) was 0.72 fold and the “Relative expression level (fold) α-SMA protein” value (α-SMA protein; Group vi: 1% serum + TGF-β1 5 ng/ml 12 h, then compound (1) 25 μg/ml 24 h, 10% serum control = 1, TGF-β1-only group iv = 0.89) was 0.77 fold.
